# Results reported in PMC9131456, “Structure-Based Discovery of Lipoteichoic Acid Synthase Inhibitors” (Journal of Chemical Information and Modeling, 2022).
# Columns and labels:
# [1] = system: HEK293 cells; test: LDH release cytotoxicity assay; type: cell-based, human; details: 200 μM compound, 24 h
# Procedure: The human embryonic kidney (HEK293) cells were maintained in Dulbecco’s modified Eagle medium (DMEM) supplemented with 10% fetal bovine serum and 100 units/mL of penicillin–streptomycin. For the cell viability assays, cells were seeded onto 96-well plates at a density of 4 × 10^4 cells/well and grown at 37 °C at 5% CO2. After incubating the cells for 24 h, the culture media were replaced with fresh DMEM supplemented with 200 μM of the compounds 1771, compound 4, compound 8, and compound 9 and incubated further for an additional 24 h. The cytotoxicity of these drugs was measured using the LDH Cytotoxicity Assay Kit according to the manufacturer’s instruction (Thermo Scientific). The absorbance at 490 nm was measured with a CLARIOstar microplate reader (BMG Labtech), and the reference wavelength was set at 630 nm.
# [2] = molecular target: T1, eLtaS (Staphylococcus aureus, UniProt Q2G093); test: Differential scanning fluorimetry (DSF) of eLtaS; type: binding, S. aureus
# T1 construct: LtaS is a transmembrane protein with a large extracellular catalytic domain (denoted as eLtaS); His-tag; made in house; host or cells: E. coli (Rosetta; plasmid pProEX-eLtaS from strain ANG571)
# T1 sequence (Q2G093 218-646): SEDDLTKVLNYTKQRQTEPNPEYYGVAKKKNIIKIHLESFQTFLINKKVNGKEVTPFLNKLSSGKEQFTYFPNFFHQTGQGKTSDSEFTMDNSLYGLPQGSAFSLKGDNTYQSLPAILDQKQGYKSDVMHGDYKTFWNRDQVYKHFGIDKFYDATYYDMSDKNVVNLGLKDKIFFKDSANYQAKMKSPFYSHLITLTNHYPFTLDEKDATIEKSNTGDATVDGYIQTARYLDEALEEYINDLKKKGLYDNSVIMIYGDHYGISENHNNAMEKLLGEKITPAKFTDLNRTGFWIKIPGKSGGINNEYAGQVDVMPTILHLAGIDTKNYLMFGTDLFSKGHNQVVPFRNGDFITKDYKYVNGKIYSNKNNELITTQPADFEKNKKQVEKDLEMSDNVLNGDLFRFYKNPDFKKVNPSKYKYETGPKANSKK
# Procedure: DSF assays were performed on eLtaS using the CFX Connect RT-PCR system (Bio-rad) using the protocol described previously.[43] Solutions containing 5 μM eLtaS protein in DSF buffer (25 mM Trizma-HCl, pH 7.5, 100 mM NaCl, 10% glycerol, 1 mM EDTA, 20× SYPRO Orange) with compounds at the appropriate concentrations were dispensed onto 96-well PCR plates in triplicate. The plates were sealed with Microseal “B” PCR Plate Sealing Film (Bio-rad) prior to the DSF run. The emitted fluorescence at 568 nm was measured from 25 to 65 °C at a step ramp rate of 0.5 °C every 30 s. Prism GraphPad v.5 was used for curve fitting, and the melting temperature Tm for each curves was derived from the Boltzmann equation.
# [3] = molecular target: T2, wild-type eLtaS (Staphylococcus aureus, UniProt Q2G093); test: Isothermal titration calorimetry, wild-type eLtaS; type: binding, S. aureus; details: ITC; for Kd: 25 °C, wild-type eLtaS titrated into 10 μM inhibitor
# T2 construct: LtaS is a transmembrane protein with a large extracellular catalytic domain (denoted as eLtaS); His-tag; made in house; host or cells: E. coli (Rosetta; plasmid pProEX-eLtaS from strain ANG571)
# T2 sequence (Q2G093 218-646): as above
# Procedure: Each of the eLtaS proteins were purified from 6 L of E. coli cultures that were grown with aeration in LB medium supplemented with 200 μg/mL of carbenicillin and 34 μg/mL of chloramphenicol at 37 °C. When the cultures reached an OD600nm of about 0.6, protein expression was induced with 1 mM IPTG final concentration at 21 °C overnight. Later, the bacteria were harvested by centrifugation at 11,899g, and the bacterial pellets were resuspended with lysis buffer (50 mM Trizma-HCl, pH 7.5, 300 mM NaCl, 5% glycerol, 10 mM imidazole, 5 mM β-mercaptoethanol). The bacterial pellets were lyzed by three passages through a high-pressure emulsifier, and the lysates were centrifuged at 47,596g for 30 min at 4 °C. The resulting supernatants containing the His-tagged eLtaS proteins were filtered with a 0.22 μm filter before being loaded onto a 5 mL Ni-NTA column using an ÄKTApure protein purification system. The bound proteins were subsequently washed with lysis buffer, eluted using the elution buffer (50 mM Trizma-HCl, pH 7.5, 300 mM NaCl, 5% glycerol, and 300 mM imidazole), and dialyzed twice using the dialysis buffer [25 mM Trizma-HCl, pH 7.5, 100 mM NaCl, 10% glycerol, 1 mM ethylenediaminetetraacetic acid (EDTA)]. After dialysis, protein purity was confirmed to be >90% using SDS-PAGE. Proteins were then concentrated, snap-frozen in liquid N2, and stored at −80 °C prior to usage. All four eLtaS proteins were subjected to circular dichroism analysis, and their exact masses were determined using MS.
# The thawed eLtaS proteins were dialyzed using D-Tube Dialyzer Mini (EMD Millipore) in 20 mM Trizma-HCl pH 7.5, 100 mM NaCl with Chelex 100 (Sigma-Aldrich) for 1.5 h twice on the same day prior to the ITC experiments. After dialysis, the eLtaS proteins were centrifuged at 20,000g at 10 °C for 10 min. The supernatants were transferred to new microcentrifuge tubes and diluted to 100 μM using the same buffer as above with an addition of 0.1% (v/v) DMSO. Meanwhile, the eLtaS inhibitors were diluted to 10 μM using the same buffer and maintaining 0.1% (v/v) DMSO. The eLtaS proteins were titrated into the main cell containing the inhibitors using a VP-ITC at 25 °C. The injection parameters were set as follows: a reference power of 15 μcal/s, an initial injection of 3 μL over a duration of 3.6 s, and then subsequent injections of 10 μL over a duration of 12 s. All injections were spaced with 240 s with a filter period of 2 s. Data were first analyzed in NITPIC[69] for baseline calculations and then fit for thermodynamic parameters using the OneSite model in Origin 7.0 software.
# [4] = system: S. aureus (strain Newman); test: Antimicrobial microdilution broth assay (growth inhibition); type: cell-based; details: for IC50: S. aureus strain Newman growth, OD600nm after 20 h at 37 °C, MH2 broth, mean ± s.e.m., n = 3
# Procedure: All the compounds tested in this study were dissolved in dimethyl sulfoxide (DMSO) at an initial stock concentration of 20 mM and stored at −20 °C. These compounds were tested for their antimicrobial activity using the microdilution broth method[66] following the protocol described by Richter et al.[30] Briefly, overnight cultures of S. aureus (strain Newman) grown at 37 °C in cation-adjusted Mueller Hinton II (MH2) broth were adjusted to an OD600nm of 0.6 before back-diluted with a factor of 1:2000 with the same broth. After that, 200 μL of the diluted bacterial culture were dispensed into each well of 96-well plates supplemented with the compounds to the desired concentrations. The plates were then sealed with a moisture membrane barrier and incubated statically for 20 h at 37 °C. After that, the OD600nm values of the cultures in each well were measured using a CLARIOstar microplate reader (BMG Labtech). The procedures for the potentiation assays were by large the same as described above with some variations. In such assays, MRSA strain COL was grown in the 96-well plates supplemented with different concentrations of compound 9 with methicillin, carbenicillin, or polymyxin B in a checkerboard format. Their synergistic effects were quantified by OD600nm measurements using a CLARIOstar microplate reader (BMG Labtech).
# [5] = Staphylococcus aureus, NEWMAN, 20 h
Structure (SMILES),cytotoxicity (LDH release) [1],"direct binding to eLtaS ([2]; using ITC and DSF, DSF at 100 μM compound)",Kd [3] [nM],decrease in antimicrobial potency compared with compound 8 ([4]; S. aureus growth) [fold],IC50 [4] [µM],"IC50 [4, 5] [µM]","shift of the melting temperature of eLtaS ([2]; DSF, 5 μM eLtaS, across the range of concentrations tested)","binding enthalpy ([3]; wild-type eLtaS, compared with 1771)","improvement in antimicrobial potency ([4]; compound 4 compared with 1771, S. aureus growth) [fold]"
S=C(Nc1ccc(Cl)cc1)Nc1ccc(Sc2nc3ccccc3[nH]2)cc1 [Compound 9],not cytotoxic,binds directly to eLtaS,283,4,117,117,–,–,–
O=C(COC(=O)c1cn(-c2ccccc2)nc1-c1cccs1)Nc1nnc(-c2ccccc2)o1 [Compound 4],non-cytotoxic,–,365 ± 6.8,–,4.06 ± 0.4,4.1,shifted the melting temperature of eLtaS more so than 1771,more exothermic than that of 1771,4
